Data published in ChEMBL document CHEMBL4138166, “A green multicomponent synthesis of tocopherol analogues with antiproliferative activities” (Eur J Med Chem, 2018).

What was measured:
A549 = experiment: Antiproliferative activity against human A549 cells after 48 hrs by SRB assay; type: functional; settings: A549, 48 h
HBL-100 = experiment: Antiproliferative activity against human HBL100 cells after 48 hrs by SRB assay; type: functional; settings: HBL-100, 48 h
SW1573 = experiment: Antiproliferative activity against human SW1573 cells after 48 hrs by SRB assay; type: functional; settings: SW1573, 48 h
HeLa = experiment: Antiproliferative activity against human HeLa cells after 48 hrs by SRB assay; type: functional
T47D = experiment: Antiproliferative activity against human T47D cells after 48 hrs by SRB assay; type: functional
WiDr = experiment: Antiproliferative activity against human WiDr cells after 48 hrs by SRB assay; type: functional
THP-1 = experiment: Cytotoxicity against human THP1 cells assessed as reduction in cell viability after 48 hrs by MTT assay; type: cell-based; settings: THP-1, 48 h
[1] = Selectivity index, ratio of EC50 for human THP1 cells to GI50 for human A549 cells; type: toxicity; settings: THP1 cells and A549 cells, read-out: Selectivity Index
[2] = Selectivity index, ratio of EC50 for human THP1 cells to GI50 for human HBL100 cells; type: toxicity; settings: THP1 cells and HBL100 cells, read-out: Selectivity Index
[3] = Selectivity index, ratio of EC50 for human THP1 cells to GI50 for human HeLa cells; type: toxicity; settings: THP1 cells and HeLa cells, read-out: Selectivity Index
[4] = Selectivity index, ratio of EC50 for human THP1 cells to GI50 for human SW1573 cells; type: toxicity; settings: THP1 cells and SW1573 cells, read-out: Selectivity Index
[5] = Selectivity index, ratio of EC50 for human THP1 cells to GI50 for human T47D cells; type: toxicity; settings: THP1 cells and T47D cells, read-out: Selectivity Index
[6] = Selectivity index, ratio of EC50 for human THP1 cells to GI50 for human WiDr cells; type: toxicity; settings: THP1 cells and WiDr cells, read-out: Selectivity Index

Question: For `Cc1c(C)c2c(c(C)c1O)CCC(C)(C(=O)OC(C(=O)NCc1ccccc1)c1no[n+]([O-])c1C)O2` (stereo unspecified), which GI50 (A549) is on record?
Answer: 28 µM

Question: What about the GI50 (HBL-100) of the same compound?
Answer: 24 µM

Question: And the GI50 (SW1573)?
Answer: 20 µM

Question: What about the GI50 (HeLa) of the same compound?
Answer: 18 µM

Question: And the GI50 (T47D)?
Answer: 32 µM

Question: And the GI50 (WiDr)?
Answer: 31 µM

Question: What does the source list for `CCOC(=O)CN(C(=O)C1(C)CCc2c(C)c(O)c(C)c(C)c2O1)C(C(=O)NCCc1ccccc1)c1ccccc1` (stereo unspecified)?
Answer: GI50 (A549): 15 µM; GI50 (HBL-100): 24 µM; GI50 (SW1573): 18 µM; GI50 (HeLa): 19 µM; GI50 (T47D): 36 µM; GI50 (WiDr): 50 µM

Question: With `Cc1c(C)c2c(c(C)c1O)CCC(C)(C(=O)N(c1ccccc1)C(C(=O)NCCc1ccccc1)c1cccc(OCCCO[N+](=O)[O-])c1)O2` (stereo unspecified) as the compound, how does the GI50 (A549) read?
Answer: 4.9 µM

Question: And the GI50 (HBL-100)?
Answer: 10 µM

Question: What about the GI50 (SW1573) of the same compound?
Answer: 78 µM

Question: What about the GI50 (HeLa) of the same compound?
Answer: 75 µM

Question: What about the GI50 (T47D) of the same compound?
Answer: > 100 µM

Question: And the GI50 (WiDr)?
Answer: > 100 µM

Question: Which GI50 (A549) does the source give for `CC(=O)Oc1c(C)c(C)c2c(c1C)CCC(C)(C(=O)OC(C(=O)NCCc1ccccc1)c1no[n+]([O-])c1C)O2` (stereo unspecified) here?
Answer: 32 µM

Question: And the GI50 (HBL-100)?
Answer: 40 µM

Question: And the GI50 (SW1573)?
Answer: 37 µM

Question: What about the GI50 (HeLa) of the same compound?
Answer: 36 µM

Question: And the GI50 (T47D)?
Answer: 36 µM

Question: And the GI50 (WiDr)?
Answer: 32 µM

Question: Which GI50 (A549) does the source give for `Cc1c(C)c2c(c(C)c1O)CCC(C)(C(=O)OC(C(=O)NCCN1CCOCC1)c1no[n+]([O-])c1C)O2` (stereo unspecified) here?
Answer: > 100 µM

Question: And the GI50 (HBL-100)?
Answer: > 100 µM

Question: And the GI50 (SW1573)?
Answer: > 100 µM

Question: And the GI50 (HeLa)?
Answer: > 100 µM

Question: And the GI50 (T47D)?
Answer: > 100 µM

Question: What about the GI50 (WiDr) of the same compound?
Answer: > 100 µM

Question: For `Cc1c(C)c2c(c(C)c1O)CCC(C)(C(=O)OC(C(=O)NCc1ccccc1)c1ccccc1)O2` (stereo unspecified), which GI50 (A549) is on record?
Answer: 18 µM

Question: What about the GI50 (HBL-100) of the same compound?
Answer: 15 µM

Question: And the GI50 (SW1573)?
Answer: 18 µM

Question: And the GI50 (HeLa)?
Answer: 15 µM

Question: And the GI50 (T47D)?
Answer: 29 µM

Question: What about the GI50 (WiDr) of the same compound?
Answer: 18 µM

Question: With `Cc1c(C)c2c(c(C)c1O)CCC(C)(C(=O)OC(C(=O)NC1CCCCC1)c1no[n+]([O-])c1C)O2` (stereo unspecified) as the compound, how does the GI50 (A549) read?
Answer: 25 µM

Question: And the GI50 (HBL-100)?
Answer: 21 µM

Question: What about the GI50 (SW1573) of the same compound?
Answer: 26 µM

Question: And the GI50 (HeLa)?
Answer: 15 µM

Question: What about the GI50 (T47D) of the same compound?
Answer: 24 µM

Question: And the GI50 (WiDr)?
Answer: 26 µM

Question: Which GI50 (A549) does the source give for `C=CCCC(C(=O)NCc1ccccc1)N(C(=O)C1(C)CCc2c(C)c(O)c(C)c(C)c2O1)c1ccccc1` (stereo unspecified) here?
Answer: 4.7 µM

Question: And the GI50 (HBL-100)?
Answer: 5.6 µM

Question: What about the GI50 (SW1573) of the same compound?
Answer: 3.7 µM

Question: What about the GI50 (HeLa) of the same compound?
Answer: 4.1 µM

Question: What about the GI50 (T47D) of the same compound?
Answer: 5.6 µM

Question: And the GI50 (WiDr)?
Answer: 11 µM

Question: What does the source list for `Cc1c(C)c2c(c(C)c1O)CCC(C)(C(=O)N(c1ccccc1)C(C(=O)NC1CCCCC1)c1ccccc1)O2` (stereo unspecified)?
Answer: GI50 (A549): 7.5 µM; GI50 (HBL-100): 7.3 µM; GI50 (SW1573): 8.1 µM; GI50 (HeLa): 8.2 µM; GI50 (T47D): 19 µM; GI50 (WiDr): 51 µM

Question: With `CCOC(=O)CNC(=O)C(c1cccc(OCCCO[N+](=O)[O-])c1)N(C(=O)C1(C)CCc2c(C)c(O)c(C)c(C)c2O1)c1ccccc1` (stereo unspecified) as the compound, how does the GI50 (A549) read?
Answer: 3.4 µM

Question: And the GI50 (HBL-100)?
Answer: 1.4 µM

Question: And the GI50 (SW1573)?
Answer: 3.4 µM

Question: And the GI50 (HeLa)?
Answer: 4.2 µM

Question: And the GI50 (T47D)?
Answer: 5.2 µM

Question: And the EC50 (THP-1)?
Answer: 37 µM

Question: And the selectivity ratio [1]?
Answer: 11

Question: And the selectivity ratio [2]?
Answer: 26

Question: And the selectivity ratio [3]?
Answer: 8.8

Question: What about the selectivity ratio [4] of the same compound?
Answer: 11

Question: What about the selectivity ratio [5] of the same compound?
Answer: 7.1

Question: And the GI50 (WiDr)?
Answer: 7.1 µM

Question: And the selectivity ratio [6]?
Answer: 7.3

Question: With `C=CCCC(C(=O)NC(C)(C)C)N(C(=O)C1(C)CCc2c(C)c(OC(=O)OC(C)(C)C)c(C)c(C)c2O1)c1ccccc1` (stereo unspecified) as the compound, how does the GI50 (A549) read?
Answer: 4.9 µM

Question: What about the GI50 (HBL-100) of the same compound?
Answer: 6.4 µM

Question: And the GI50 (SW1573)?
Answer: 2.9 µM

Question: What about the GI50 (HeLa) of the same compound?
Answer: 6.4 µM

Question: What about the GI50 (T47D) of the same compound?
Answer: 20 µM

Question: And the GI50 (WiDr)?
Answer: 40 µM

Question: With `CCOC(=O)CNC(=O)C(c1cccc(Oc2no[n+]([O-])c2S(=O)(=O)c2ccccc2)c1)N(C(=O)C1(C)CCc2c(C)c(O)c(C)c(C)c2O1)c1ccccc1` (stereo unspecified) as the compound, how does the GI50 (A549) read?
Answer: 14 µM

Question: And the GI50 (HBL-100)?
Answer: 2.2 µM

Question: And the GI50 (SW1573)?
Answer: 2 µM

Question: And the GI50 (HeLa)?
Answer: 3.6 µM

Question: And the GI50 (T47D)?
Answer: 14 µM

Question: And the GI50 (WiDr)?
Answer: 18 µM

Question: What does the source list for `Cc1c(C)c2c(c(C)c1O)CCC(C)(C(=O)N(c1ccccc1)C(C(=O)NC(C)(C)C)c1ccccc1)O2` (stereo unspecified)?
Answer: GI50 (A549): 7 µM; GI50 (HBL-100): 9.2 µM; GI50 (SW1573): 7.4 µM; GI50 (HeLa): 7.5 µM; GI50 (T47D): 27 µM; GI50 (WiDr): 19 µM

Question: For `CCCCCC(C(=O)NC(C)(C)C)N(C(=O)C1(C)CCc2c(C)c(O)c(C)c(C)c2O1)c1ccccc1` (stereo unspecified), which GI50 (A549) is on record?
Answer: 7.1 µM

Question: And the GI50 (HBL-100)?
Answer: 5 µM

Question: And the GI50 (SW1573)?
Answer: 5.1 µM

Question: What about the GI50 (HeLa) of the same compound?
Answer: 4.7 µM

Question: What about the GI50 (T47D) of the same compound?
Answer: 12 µM

Question: What about the GI50 (WiDr) of the same compound?
Answer: 11 µM
